# Where two headings read alike, the source gives them in different places.
# Experiments:
# human AhR (hAhR) = target: T1, human AhR (hAhR) (Homo sapiens, UniProt P35869); assay: AhR-responsive luciferase reporter gene assay in stably transfected human HG2L6.1c1 hepatoma cells; conditions: for maximal level of reporter gene induction: relative to TCDD
# T1 sequence (P35869 11-848): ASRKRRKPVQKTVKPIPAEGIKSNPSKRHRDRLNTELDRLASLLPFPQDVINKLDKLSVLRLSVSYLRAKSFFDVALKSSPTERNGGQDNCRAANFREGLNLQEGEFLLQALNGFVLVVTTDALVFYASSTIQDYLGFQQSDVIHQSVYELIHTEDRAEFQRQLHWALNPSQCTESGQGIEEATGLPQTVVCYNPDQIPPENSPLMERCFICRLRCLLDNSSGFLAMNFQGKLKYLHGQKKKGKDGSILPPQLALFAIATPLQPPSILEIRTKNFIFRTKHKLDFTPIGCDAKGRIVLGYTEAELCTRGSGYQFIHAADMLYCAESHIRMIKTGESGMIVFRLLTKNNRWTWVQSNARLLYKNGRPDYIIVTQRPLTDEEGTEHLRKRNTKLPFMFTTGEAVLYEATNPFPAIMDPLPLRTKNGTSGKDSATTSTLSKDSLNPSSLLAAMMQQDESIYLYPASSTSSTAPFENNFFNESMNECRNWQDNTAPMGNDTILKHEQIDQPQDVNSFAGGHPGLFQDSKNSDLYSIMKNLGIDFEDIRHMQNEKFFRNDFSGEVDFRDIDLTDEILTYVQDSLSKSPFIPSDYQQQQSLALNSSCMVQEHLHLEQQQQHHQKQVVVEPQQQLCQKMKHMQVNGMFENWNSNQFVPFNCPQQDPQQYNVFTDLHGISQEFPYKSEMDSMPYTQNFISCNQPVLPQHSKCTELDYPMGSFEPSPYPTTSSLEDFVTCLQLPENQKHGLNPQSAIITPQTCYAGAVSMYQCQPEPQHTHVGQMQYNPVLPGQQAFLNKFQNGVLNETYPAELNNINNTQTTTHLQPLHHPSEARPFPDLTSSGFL
# Description: (§1) AhR-dependent gene transcription was determined in (A) human HG2L6.1c.1 and (B) mouse H1L6.1c.3 hepatoma cell lines that contain a stably transfected AhR-responsive luciferase reporter gene. […] Luciferase activity (Relative Light Units (RLUs)) was normalized to the maximal induction observed with TCDD in each cell line. Values represent the mean ± SD of nine independent analyses.
# (§2) Recombinant mouse (H1L6.1c3) and human (HG2L6.1c1) hepatoma cells containing a stably integrated AhR-responsive luciferase reporter gene plasmid (pGudLuc6.1) were plated (750,000 cells/well) in 96-well plates and incubated at 37 °C for 24 h prior to chemical treatment. Cells were incubated with DMSO (1% (v/v)) or the indicated concentration of test chemical in DMSO for 4 h, followed by visual inspection of the cells for toxicity, washing of the cells with phosphate-buffered saline (PBS), addition of 50 µL of passive lysis buffer (Promega) and lysis of cells for 20 min at room temperature with shaking [50]. Luciferase activity in each well was measured (integrating luminescence over 10 s with a 10 s delay) in an Orion microplate luminometer (Berthold Detection Systems, Bad Wildbad, Germany) following automatic injection of Promega stabilized luciferase reagent.
# (§3) Analysis of statistical significance of differences between experimental values was conducted using Two-Way ANOVA and EC50s and IC50s were calculated using nonlinear regression (three parameter) analysis in GraphPad Prism v.7 (La Jolla, CA, USA).
# mouse AhR (mAhR) = target: T2, mouse AhR (mAhR) (Mus musculus, UniProt P30561); assay: AhR-responsive luciferase reporter gene assay in stably transfected mouse H1L6.1c3 hepatoma cells; assay type: cell-based
# T2 sequence (P30561 10-805): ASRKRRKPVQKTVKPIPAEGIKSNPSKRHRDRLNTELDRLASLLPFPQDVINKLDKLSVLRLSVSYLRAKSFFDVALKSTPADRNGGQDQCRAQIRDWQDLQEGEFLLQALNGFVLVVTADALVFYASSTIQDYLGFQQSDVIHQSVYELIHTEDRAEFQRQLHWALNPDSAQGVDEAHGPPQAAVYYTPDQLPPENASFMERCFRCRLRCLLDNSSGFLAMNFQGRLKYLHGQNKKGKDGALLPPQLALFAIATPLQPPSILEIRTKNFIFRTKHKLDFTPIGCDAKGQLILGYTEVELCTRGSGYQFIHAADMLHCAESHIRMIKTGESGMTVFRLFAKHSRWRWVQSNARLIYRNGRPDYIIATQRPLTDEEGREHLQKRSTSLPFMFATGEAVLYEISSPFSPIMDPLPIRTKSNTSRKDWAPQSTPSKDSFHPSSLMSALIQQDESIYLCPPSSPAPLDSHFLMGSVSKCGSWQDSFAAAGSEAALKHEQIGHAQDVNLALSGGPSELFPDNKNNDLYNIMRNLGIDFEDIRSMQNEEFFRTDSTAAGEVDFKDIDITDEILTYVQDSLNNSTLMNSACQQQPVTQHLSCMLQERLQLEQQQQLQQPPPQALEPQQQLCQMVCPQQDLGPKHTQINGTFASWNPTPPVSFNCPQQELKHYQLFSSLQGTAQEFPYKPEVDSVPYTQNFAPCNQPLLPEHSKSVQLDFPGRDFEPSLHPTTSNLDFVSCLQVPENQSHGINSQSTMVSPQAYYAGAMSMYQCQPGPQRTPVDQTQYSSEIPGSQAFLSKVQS
# Description: as §1, §2, §3
# AhR [1] = conditions: mouse hepatoma cells ref 23; cited from earlier work
# AhR [2] = conditions: human hepatoma cells ref 23; cited from earlier work
# mAhR-hAhRLBD = mAhR-hAhRLBD (Mus musculus; Homo sapiens, UniProt P30561+P35869); conditions: COS-1 cells cotransfected with mAhR-hAhRLBD; TCDD 10 nM, IR 1 µM, 18–20 h
# Chain of mAhR-hAhRLBD (P30561 with tags, fused parts or gaps, one chain of several): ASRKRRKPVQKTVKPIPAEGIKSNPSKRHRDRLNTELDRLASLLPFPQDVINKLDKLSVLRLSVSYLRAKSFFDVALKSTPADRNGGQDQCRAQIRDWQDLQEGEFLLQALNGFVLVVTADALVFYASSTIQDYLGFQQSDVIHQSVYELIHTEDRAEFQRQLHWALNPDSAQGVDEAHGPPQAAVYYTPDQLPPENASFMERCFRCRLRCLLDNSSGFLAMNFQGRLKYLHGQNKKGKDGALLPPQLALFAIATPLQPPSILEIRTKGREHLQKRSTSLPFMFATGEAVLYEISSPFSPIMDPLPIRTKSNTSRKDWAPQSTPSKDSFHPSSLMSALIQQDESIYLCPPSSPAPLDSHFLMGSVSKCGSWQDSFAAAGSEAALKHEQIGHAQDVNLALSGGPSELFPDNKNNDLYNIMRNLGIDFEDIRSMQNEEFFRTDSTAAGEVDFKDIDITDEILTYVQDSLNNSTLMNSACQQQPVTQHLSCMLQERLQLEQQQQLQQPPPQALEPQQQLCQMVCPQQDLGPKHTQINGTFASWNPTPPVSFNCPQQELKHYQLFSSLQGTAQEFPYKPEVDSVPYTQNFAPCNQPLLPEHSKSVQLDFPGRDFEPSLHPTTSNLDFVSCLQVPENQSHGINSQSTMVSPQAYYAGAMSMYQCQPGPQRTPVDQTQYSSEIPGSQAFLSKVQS
# Chain of mAhR-hAhRLBD (P53762 2-791 partner, one chain of several): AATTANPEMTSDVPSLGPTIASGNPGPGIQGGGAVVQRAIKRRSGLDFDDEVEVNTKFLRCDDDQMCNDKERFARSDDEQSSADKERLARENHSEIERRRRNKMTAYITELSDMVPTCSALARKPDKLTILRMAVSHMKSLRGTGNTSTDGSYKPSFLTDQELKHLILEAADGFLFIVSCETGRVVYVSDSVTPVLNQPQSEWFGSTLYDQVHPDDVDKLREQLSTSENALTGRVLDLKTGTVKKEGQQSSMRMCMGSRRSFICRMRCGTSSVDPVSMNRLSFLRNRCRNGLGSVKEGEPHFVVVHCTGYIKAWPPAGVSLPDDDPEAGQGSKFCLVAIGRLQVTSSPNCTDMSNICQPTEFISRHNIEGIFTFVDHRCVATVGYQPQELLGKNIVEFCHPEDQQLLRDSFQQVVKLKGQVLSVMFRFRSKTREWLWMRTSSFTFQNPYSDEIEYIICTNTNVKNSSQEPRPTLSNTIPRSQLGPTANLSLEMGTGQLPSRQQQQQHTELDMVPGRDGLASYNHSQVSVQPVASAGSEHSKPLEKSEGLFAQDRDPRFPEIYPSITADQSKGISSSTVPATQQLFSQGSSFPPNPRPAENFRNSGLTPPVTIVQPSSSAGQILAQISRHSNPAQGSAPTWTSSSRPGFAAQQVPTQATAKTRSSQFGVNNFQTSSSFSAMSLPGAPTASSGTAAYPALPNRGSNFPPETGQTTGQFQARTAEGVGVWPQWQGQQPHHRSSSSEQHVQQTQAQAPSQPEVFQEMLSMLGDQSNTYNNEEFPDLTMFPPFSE
# Description: (§4) Cells were lysed, and lysates were analyzed for firefly luciferase activity. […] Luciferase activity (relative light units; RLU) was measured and corrected for background (DMSO) and normalized to mAhR TCDD levels. Values represent the mean ± SD of nine individual replicate analyses.
# (§5) COS-1 cells were plated at a density of 75,000 cells/well and allowed to attach overnight in a 24-well plate. Cells were transiently transfected (per well) with the following amounts per well: 2 µL Lipofectamine 2000 (Invitrogen, Carlsbad, CA, USA), 20 ng wild-type (mβAhR/pcDNA3) or mutant AhR expression plasmids (in pcDNA3.1), 20 ng of mβARNT/pcDNA3 or pcDNA3.1(+) and 200 ng pGudLuc6.1 [17].
# hAhR = hAhR (Homo sapiens, UniProt P35869); conditions: COS-1 cells cotransfected with hAhR; TCDD 10 nM, IR 1 µM, 18–20 h
# Description: as §4, §5
# mutant A349T mAhR = test system: T3, mutant A349T mAhR; assay: Transient transfection luciferase reporter assay in COS-1 cells, A349T mAhR; assay type: cell-based, mouse; conditions: COS-1 cells cotransfected with A349T mAhR; TCDD 10 nM, IR 1 µM, 18–20 h
# T3 construct: contains a full-length mAhR cDNA in which the mouse PASB LBD was replaced; expressed in transfected cells; host or cells: COS-1
# Description: as §4, §5
# [3] = mouse H1L6.1c3 hepatoma cells, 4 h, mean ± SD of nine analyses, read-out: EC50 to stimulate luciferase reporter gene expression, Mouse
smiles,measurement,setting,value
"Cc1ccc2cc3c(ccc4ccccc43)c3c2c1CC3 [3-MC, 3-Methylcholanthrene]",EC50,human AhR (hAhR),14.6 ± 3.51 nM
same,maximal level of reporter gene induction,human AhR (hAhR); human HG2L6.1c1 cells,maximal induction was not observed
same,EC50,mouse AhR (mAhR); [3],1.49 ± 0.01 nM
"O=c1cc(-c2ccccc2)oc2ccc3ccccc3c12 [BNF, β-naphthoflavone]",maximal level of reporter gene induction,human AhR (hAhR); human HG2L6.1c1 cells,maximal induction was not observed
same,EC50,mouse AhR (mAhR); [3],1.84 ± 1.14 nM
"O=Cc1c2[nH]c3ccccc3c2cc2[nH]c3ccccc3c12 [FICZ, 6-formylindolo[3,2-b]carbazole]",EC50,mouse AhR (mAhR); [3],3.71 ± 0.85 nM
"O=C1Nc2ccccc2/C1=C1/Nc2ccccc2C1=O [IR, indirubin]",less potent than TCDD as inducer of AhR-dependent gene expression,AhR [1],~ 10 fold
same,greater potency than TCDD as inducer of AhR-dependent gene expression,AhR [2],10 fold
same,"more potent than TCDD, reporter gene induction",human AhR (hAhR); human HG2L6.1c1 cells,~ 7 fold
same,"induction of luciferase activity, IR versus TCDD",mAhR-hAhRLBD,significantly more efficacious inducer than TCDD
same,"induction of luciferase activity, IR versus TCDD",hAhR,significantly more efficacious inducer than TCDD
same,EC50,mouse AhR (mAhR); mouse,15.6 ± 3.52 nM
same,"induction of luciferase activity, IR versus TCDD",mutant A349T mAhR,significantly more efficacious inducer than TCDD
same,maximal induction compared with wild-type mAhR,mutant A349T mAhR,significantly increased above that of wild-type mAhR
